The values below come from ChEMBL document CHEMBL3797035 (Bioorg Med Chem, 2016).

Experiment [1] deals with Beta-1 adrenergic receptor (Mus musculus, UniProt P34971). Nature of the experiment: Displacement of [3H]CGP12177 from mouse beta1 receptor expressed in HEK293 cells. It is filed as cell-based. In general terms: Displacement assays read how much labelled ligand stays bound in the presence of the test substance.
The target in experiment [2] is T1, Beta-2 adrenergic receptor (Homo sapiens, UniProt P07550). Kind of experiment: Displacement of [3H]CGP12177 from human beta2 receptor expressed in CHO cells. The class given is cell-based.
T1 sequence (P07550 whole entry): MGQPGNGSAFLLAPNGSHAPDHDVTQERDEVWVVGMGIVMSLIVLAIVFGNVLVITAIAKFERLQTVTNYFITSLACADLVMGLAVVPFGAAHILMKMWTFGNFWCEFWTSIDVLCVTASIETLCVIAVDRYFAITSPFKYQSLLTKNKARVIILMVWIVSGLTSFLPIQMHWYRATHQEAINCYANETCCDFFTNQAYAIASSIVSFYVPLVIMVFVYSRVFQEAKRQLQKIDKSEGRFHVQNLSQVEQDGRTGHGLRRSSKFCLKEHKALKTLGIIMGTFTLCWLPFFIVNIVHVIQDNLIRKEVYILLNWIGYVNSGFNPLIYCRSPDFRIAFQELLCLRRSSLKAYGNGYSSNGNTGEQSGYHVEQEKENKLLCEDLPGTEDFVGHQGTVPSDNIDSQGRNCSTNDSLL
A further experiment deals with D(1A) dopamine receptor (Homo sapiens, UniProt P21728). Nature of the experiment: Displacement of [3H]SCH23390 from human D1 receptor expressed in HEK293 cells. The class given is cell-based.
D(1A) dopamine receptor, sequence (P21728 whole entry): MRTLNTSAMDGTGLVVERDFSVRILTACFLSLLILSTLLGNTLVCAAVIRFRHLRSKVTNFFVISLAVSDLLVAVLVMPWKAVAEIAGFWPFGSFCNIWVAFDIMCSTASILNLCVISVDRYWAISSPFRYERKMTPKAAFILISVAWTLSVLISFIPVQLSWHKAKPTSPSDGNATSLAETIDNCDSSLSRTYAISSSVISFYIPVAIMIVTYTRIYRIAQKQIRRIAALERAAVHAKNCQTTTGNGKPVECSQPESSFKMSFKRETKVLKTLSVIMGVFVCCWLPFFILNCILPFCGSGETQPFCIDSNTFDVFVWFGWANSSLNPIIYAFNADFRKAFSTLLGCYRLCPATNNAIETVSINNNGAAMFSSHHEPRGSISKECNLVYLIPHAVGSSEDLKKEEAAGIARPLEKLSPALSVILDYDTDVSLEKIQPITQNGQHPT
Experiment [3] concerns the target T2, D(2) dopamine receptor (Homo sapiens, UniProt P14416). Kind of experiment: Displacement of [3H]spiperone from human D2L receptor expressed in CHO cells. The class given is cell-based.
For experiment [4], the target named is T2, D(2) dopamine receptor. Kind of experiment: Displacement of [3H]spiperone from human D2S receptor expressed in CHO cells. It is filed as cell-based.
The target of a further experiment is D(3) dopamine receptor (Homo sapiens, UniProt P35462). Kind of experiment: Displacement of [3H]spiperone from human D3 receptor expressed in CHO cells. The class given is cell-based.
D(3) dopamine receptor, sequence (P35462 whole entry): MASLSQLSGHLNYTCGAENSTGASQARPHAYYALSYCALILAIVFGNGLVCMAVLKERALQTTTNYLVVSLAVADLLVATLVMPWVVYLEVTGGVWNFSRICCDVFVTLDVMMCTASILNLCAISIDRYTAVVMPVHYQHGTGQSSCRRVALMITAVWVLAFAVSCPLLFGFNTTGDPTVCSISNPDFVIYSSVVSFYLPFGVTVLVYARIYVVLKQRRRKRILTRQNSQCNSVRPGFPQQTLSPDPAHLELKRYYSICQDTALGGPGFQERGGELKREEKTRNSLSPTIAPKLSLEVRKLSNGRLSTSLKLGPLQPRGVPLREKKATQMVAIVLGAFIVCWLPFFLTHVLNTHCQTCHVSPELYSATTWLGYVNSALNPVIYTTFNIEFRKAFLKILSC
For the next experiment, the target named is T3, D(4) dopamine receptor (Homo sapiens, UniProt P21917).
T3 sequence (P21917 whole entry): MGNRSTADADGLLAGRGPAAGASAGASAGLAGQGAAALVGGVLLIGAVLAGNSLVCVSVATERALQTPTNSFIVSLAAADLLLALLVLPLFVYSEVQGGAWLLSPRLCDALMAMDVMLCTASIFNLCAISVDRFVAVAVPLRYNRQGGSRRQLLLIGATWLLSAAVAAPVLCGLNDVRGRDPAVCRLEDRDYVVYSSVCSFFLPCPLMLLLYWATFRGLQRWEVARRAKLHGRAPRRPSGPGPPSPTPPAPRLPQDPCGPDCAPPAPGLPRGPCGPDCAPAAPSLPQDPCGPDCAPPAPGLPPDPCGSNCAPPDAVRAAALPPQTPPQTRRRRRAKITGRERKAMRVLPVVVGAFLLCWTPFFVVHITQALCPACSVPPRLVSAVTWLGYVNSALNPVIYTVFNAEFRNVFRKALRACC
Nature of the experiment: Displacement of [3H]spiperone from human D4.4 receptor expressed in CHO cells. It is filed as cell-based.

Experiment [5] in a line: Displacement of [3H]prazosine from alpha-1 receptor in porcine cortical membranes. It is filed as cell membranes, Sus scrofa.
Experiment [6] is described as follows: Displacement of [3H]RX821002 from alpha-2 receptor in porcine cortical membranes. It is filed as cell membranes, Sus scrofa.
Experiment [7] deals with T1, Beta-2 adrenergic receptor. Nature of the experiment: Agonist activity at human beta2 receptor expressed in HEK293 cells cotransfected with Gqs5 protein assessed as [3H]IP3 accumulation after 120 mins by scintillation counting assay in presence of myo-[3H]-inositol. It is filed as functional, cell-based.
Experiment [8] deals with T2, D(2) dopamine receptor. Nature of the experiment: Agonist activity at human D2S receptor expressed in HEK293 cells cotransfected with Gqi5 protein assessed as [3H]IP3 accumulation after 120 mins by scintillation counting assay in presence of myo-[3H]-inositol. It is filed as functional, cell-based.
For experiment [9], the target named is T1, Beta-2 adrenergic receptor. Nature of the experiment: Agonist activity at PK-tagged beta2 receptor (unknown origin) transfected in HEK293 cells after 90 mins by beta-arrestin assay. The class given is cell-based.
Experiment [10] has as its target T2, D(2) dopamine receptor. Nature of the experiment: Agonist activity at ARMS2-PK-tagged D2S receptor (unknown origin) transfected in HEK293 cells after 5 hrs by beta-arrestin assay. The class given is cell-based.
The next experiment is filed under the species Homo sapiens. Kind of experiment: Selectivity index, ratio of Ki for human D2S receptor to Ki for human beta2 receptor.

Beta-1 adrenergic receptor, sequence (P34971 whole entry): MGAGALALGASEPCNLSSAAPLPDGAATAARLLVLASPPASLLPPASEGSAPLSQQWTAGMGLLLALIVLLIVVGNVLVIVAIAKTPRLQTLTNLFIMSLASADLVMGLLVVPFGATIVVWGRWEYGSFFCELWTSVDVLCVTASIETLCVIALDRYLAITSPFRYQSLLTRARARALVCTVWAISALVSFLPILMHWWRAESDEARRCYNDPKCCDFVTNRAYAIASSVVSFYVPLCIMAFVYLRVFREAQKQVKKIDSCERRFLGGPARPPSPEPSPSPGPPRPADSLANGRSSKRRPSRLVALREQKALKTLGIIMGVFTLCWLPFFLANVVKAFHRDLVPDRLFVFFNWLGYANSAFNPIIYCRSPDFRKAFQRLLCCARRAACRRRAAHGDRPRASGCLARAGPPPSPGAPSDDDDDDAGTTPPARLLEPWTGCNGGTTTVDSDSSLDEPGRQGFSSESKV
T2 sequence (P14416 whole entry): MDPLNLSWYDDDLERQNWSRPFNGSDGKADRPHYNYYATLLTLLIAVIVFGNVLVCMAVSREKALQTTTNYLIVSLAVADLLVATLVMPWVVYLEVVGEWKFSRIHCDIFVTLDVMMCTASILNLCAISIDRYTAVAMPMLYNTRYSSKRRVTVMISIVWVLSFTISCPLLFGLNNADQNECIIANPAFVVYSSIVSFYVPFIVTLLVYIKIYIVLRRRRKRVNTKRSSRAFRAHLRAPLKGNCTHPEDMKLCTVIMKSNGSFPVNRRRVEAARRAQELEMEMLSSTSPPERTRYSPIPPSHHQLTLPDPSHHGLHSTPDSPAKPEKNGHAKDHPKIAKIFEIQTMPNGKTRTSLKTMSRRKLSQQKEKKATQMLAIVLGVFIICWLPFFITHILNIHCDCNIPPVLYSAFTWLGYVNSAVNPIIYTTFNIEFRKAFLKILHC

As a reminder, the Ki is the dissociation constant of the complex between target and ligand, obtained from inhibition or displacement. The low end stands for a stronger hold on the target, the high end for a looser hold on the target. As a reminder, the EC50 is the concentration that produces a half-maximal response. In the case of `COc1ccccc1OCCNC[C@H](O)c1ccc(O)c(O)c1`, the Ki in experiment [1] turned out to be 0.16 µM; in [2] it was 0.097 µM; on D(1A) dopamine receptor it was 0.89 µM; on D(2) dopamine receptor [3], 0.64 µM; on D(2) dopamine receptor [4], 0.43 µM; at D(3) dopamine receptor it was 2.2 µM. In addition, the Ki is 0.3 µM at D(4) dopamine receptor, 0.05 µM in experiment [5] and 0.42 µM in [6]. Moreover, the 50% effective concentration (EC50) in experiment [7] is 0.12 µM; on D(2) dopamine receptor [8] it was 0.17 µM; in experiment [9] it was 0.21 µM.
`CCCN(CCC)[C@@H]1CCc2ccc(O)cc2C1` displayed a Ki in experiment [2] of 86 µM.
`CNC[C@H](O)c1ccc(O)c(O)c1` [EPINEPHRINE]: on D(2) dopamine receptor [4], the affinity corresponds to a Ki of 0.91 µM.
Take `COc1cc(CCNCCc2ccc(O)c(O)c2)ccc1OCCCc1ccccc1`: the Ki stood at 2.3 µM in experiment [1]; 0.053 µM in [2]; 0.86 µM on D(1A) dopamine receptor; 0.063 µM on D(2) dopamine receptor [3]; 0.12 µM at D(2) dopamine receptor [4]; 0.012 µM on D(3) dopamine receptor. Further, the Ki turned out to be 0.038 µM on D(4) dopamine receptor, 0.4 µM in experiment [5] and 0.81 µM in experiment [6]. The 50% effective concentration (EC50) in experiment [7] came to 47 µM; at D(2) dopamine receptor [8], 0.11 µM; at D(2) dopamine receptor [10] it was 2.6 µM.
With `CC(C)NCC(O)c1ccc(O)c(O)c1` (centres undefined) [ISOPROTERENOL], the inhibitory constant (Ki) is more than 50 µM on D(1A) dopamine receptor; 48 µM on D(2) dopamine receptor [3]; 12 µM on D(2) dopamine receptor [4]; 4.7 µM on D(3) dopamine receptor; 2.9 µM on D(4) dopamine receptor; 78 µM in experiment [5]. In [6], this compound gave a Ki of 5.7 µM.
For the compound `COc1cc(CCNC[C@@H](O)c2ccc(O)c(O)c2)ccc1OCCCc1ccccc1`, the Ki turned out to be 0.53 µM in experiment [1]; 0.047 µM in experiment [2]; 2.9 µM at D(1A) dopamine receptor; 1.9 µM on D(2) dopamine receptor [3]; 1.7 µM at D(2) dopamine receptor [4]; 0.66 µM on D(3) dopamine receptor. Also, the values for the Ki (on D(4) dopamine receptor; in experiment [6]) were 1 µM and 2.5 µM, respectively. Also, the figures for the EC50 in experiment [7] and in experiment [9] were 2.6 µM and 0.65 µM, respectively.
Turning to `COc1ccccc1OCCNC[C@@H](O)COc1cccc2[nH]c3ccccc3c12` [(R)-Carvedilol], affinity at D(2) dopamine receptor [4] was put at a Ki of 0.026 µM.
`OCc1cc(C(O)CNCCCCCCOCCCCc2ccccc2)ccc1O` (centres undefined) [SALMETEROL]: at D(2) dopamine receptor [4], the Ki came out at 32 µM.
`CCCN1CCC[C@@H]2Cc3n[nH]cc3C[C@H]21` [QUINPIROLE] displayed an inhibitory constant (Ki) in experiment [2] of 100 µM.
As to `CCC(NC(C)C)C(O)c1ccc(O)c2[nH]c(=O)ccc12` (centres undefined) [PROCATEROL], the values for the inhibitory constant (Ki) (in experiment [2]; at D(2) dopamine receptor [4]) were 0.033 µM and 86 µM, respectively. Further, the Ratio Ki in the experiment filed under Homo sapiens came out at 2600.
On to `COc1cc(CCNC[C@@H](O)c2ccc(O)c3c2OCC(=O)N3)ccc1OCCCc1ccccc1`, for which the Ki in experiment [1] turned out to be 0.18 µM; in experiment [2], 0.013 µM; at D(1A) dopamine receptor it was 2.8 µM; at D(2) dopamine receptor [3], 0.31 µM; at D(2) dopamine receptor [4], 0.096 µM; at D(3) dopamine receptor, 0.4 µM. Besides, the Ki on D(4) dopamine receptor amounted to 5.4 µM; in experiment [5] it was 1.1 µM; in experiment [6], 2.2 µM. The EC50 in experiment [7] was 1 µM; at D(2) dopamine receptor [8], 0.0073 µM; in experiment [9] it was 0.58 µM; on D(2) dopamine receptor [10], 8.8 µM.
With `CCCN(CCC)[C@H]1CCc2c(O)cccc2C1`, the Ki in experiment [2] is 40 µM.
As for `COc1cc(CCNCCc2ccc(O)c3[nH]c(=O)ccc23)ccc1OCCCc1ccccc1`, the inhibition constant (Ki) in [1] was found to be 0.15 µM; in experiment [2] it was 0.0063 µM; at D(1A) dopamine receptor, 2.8 µM; on D(2) dopamine receptor [3] it was 0.064 µM; at D(2) dopamine receptor [4] it was 0.16 µM; at D(3) dopamine receptor, 0.018 µM. Besides, the inhibition constant Ki is 0.9 µM at D(4) dopamine receptor, 0.92 µM in experiment [5] and 13 µM in experiment [6]. Further, the EC50 on D(2) dopamine receptor [8] is 0.017 µM; at D(2) dopamine receptor [10], 0.24 µM.
For the compound `COc1ccccc1OCCNC[C@@H](O)c1ccc(O)c(O)c1`, the Ki came out at 1.5 µM in experiment [1]; 0.85 µM in experiment [2]; 0.43 µM at D(1A) dopamine receptor; 0.35 µM on D(2) dopamine receptor [3]; 0.2 µM on D(2) dopamine receptor [4]; 0.61 µM at D(3) dopamine receptor. The Ki at D(4) dopamine receptor came to 0.24 µM; in experiment [5], 0.019 µM; in experiment [6], 0.76 µM. Moreover, the results for the EC50 in experiment [7] and in [9] were 1.4 µM and 2.2 µM, respectively.
`CCCN[C@H]1CCc2nc(N)sc2C1` [PRAMIPEXOLE] returned a Ki in experiment [2] of 100 µM.
With `COc1cc(CCNC[C@H](O)c2ccc(O)c3c2OCC(=O)N3)ccc1OCCCc1ccccc1`, the Ki in [1] stood at 0.0051 µM; in experiment [2], 0.00025 µM; on D(1A) dopamine receptor, 4.5 µM; on D(2) dopamine receptor [3] it was 0.13 µM; on D(2) dopamine receptor [4], 0.065 µM; on D(3) dopamine receptor it was 0.69 µM. The figures for the Ki (at D(4) dopamine receptor; in experiment [5]; in experiment [6]) were 1.4 µM, 1.9 µM and 4.7 µM, respectively. The EC50 in experiment [7] is 0.007 µM; on D(2) dopamine receptor [8], 0.098 µM; in experiment [9], 0.013 µM; at D(2) dopamine receptor [10] it was 13 µM.
Consider `COc1ccccc1OCCNCCc1ccc(O)c(O)c1`, for which the Ki in experiment [1] stood at 5 µM; in [2], 0.61 µM; on D(1A) dopamine receptor it was 0.21 µM; on D(2) dopamine receptor [3], 0.085 µM; on D(2) dopamine receptor [4], 0.048 µM; at D(3) dopamine receptor, 0.025 µM. The Ki at D(4) dopamine receptor was found to be 0.0045 µM; in experiment [5] it was 0.0047 µM; in [6] it was 0.39 µM. Moreover, the EC50 in experiment [7] is 0.72 µM; at D(2) dopamine receptor [8], 0.025 µM.
As for `COc1cc(CCNC[C@@H](O)c2ccc(O)c3[nH]c(=O)ccc23)ccc1OCCCc1ccccc1`, the Ki in [1] turned out to be 0.3 µM; in experiment [2] it was 0.023 µM; at D(1A) dopamine receptor, 6.8 µM; at D(2) dopamine receptor [3], 2.9 µM; at D(2) dopamine receptor [4] it was 2.3 µM; at D(3) dopamine receptor, 0.79 µM. For the same compound, the Ki at D(4) dopamine receptor was determined as 9.2 µM; in [5] it was 1.8 µM. The EC50 in [7] was 0.84 µM; in experiment [9], 0.51 µM.
Consider `NC[C@H](O)c1ccc(O)c(O)c1` [NOREPINEPHRINE], for which the Ki on D(2) dopamine receptor [4] came out at 1.3 µM.
As to `COc1cc(CCNC[C@H](O)c2ccc(O)c3[nH]c(=O)ccc23)ccc1OCCCc1ccccc1`, the Ki in experiment [1] was 0.0058 µM; in experiment [2] it was 0.00048 µM; on D(1A) dopamine receptor it was 11 µM; on D(2) dopamine receptor [3], 5.7 µM; at D(2) dopamine receptor [4], 3.2 µM; on D(3) dopamine receptor, 1.7 µM. The Ki on D(4) dopamine receptor was 3.3 µM; in experiment [5], 1.4 µM. For the same compound, the half-maximal effective concentration (EC50) is 0.0062 µM in experiment [7] and 0.022 µM in experiment [9].
`COc1cc(CCNCCc2ccc(O)c3c2OCC(=O)N3)ccc1OCCCc1ccccc1`: the Ki in experiment [1] was determined as 0.079 µM; in experiment [2], 0.0028 µM; on D(1A) dopamine receptor it was 0.96 µM; at D(2) dopamine receptor [3], 0.012 µM; at D(2) dopamine receptor [4], 0.017 µM; at D(3) dopamine receptor, 0.0035 µM. The values for the Ki (on D(4) dopamine receptor; in [5]; in [6]) were 0.055 µM, 0.12 µM and 0.27 µM, respectively. Also, the EC50 on D(2) dopamine receptor [8] was determined as 0.0026 µM; on D(2) dopamine receptor [10], 1.1 µM.
Regarding `COc1cc(CCNC[C@H](O)c2ccc(O)c(O)c2)ccc1OCCCc1ccccc1`, the Ki was determined as 0.085 µM in experiment [1]; 0.018 µM in [2]; 0.43 µM on D(1A) dopamine receptor; 0.11 µM on D(2) dopamine receptor [3]; 0.067 µM at D(2) dopamine receptor [4]; 0.062 µM on D(3) dopamine receptor. Further, the Ki on D(4) dopamine receptor was found to be 0.14 µM; in [5], 0.016 µM; in experiment [6], 1.2 µM. The EC50 in experiment [7] was 5.1 µM; on D(2) dopamine receptor [8], 0.2 µM; in experiment [9] it was 0.26 µM.
